Values of other authors, collected in patent publication US8916150B2 (priority 2009, dated 2014).

How the values were obtained:
[1] = test system: botulinum toxin light chain (LC)
[2] = in vivo
[3] = biological target: LC of BoNT-A (Clostridium botulinum, UniProt P0DPI1)
Sequence of LC of BoNT-A (P0DPI1 2-448 limits assumed): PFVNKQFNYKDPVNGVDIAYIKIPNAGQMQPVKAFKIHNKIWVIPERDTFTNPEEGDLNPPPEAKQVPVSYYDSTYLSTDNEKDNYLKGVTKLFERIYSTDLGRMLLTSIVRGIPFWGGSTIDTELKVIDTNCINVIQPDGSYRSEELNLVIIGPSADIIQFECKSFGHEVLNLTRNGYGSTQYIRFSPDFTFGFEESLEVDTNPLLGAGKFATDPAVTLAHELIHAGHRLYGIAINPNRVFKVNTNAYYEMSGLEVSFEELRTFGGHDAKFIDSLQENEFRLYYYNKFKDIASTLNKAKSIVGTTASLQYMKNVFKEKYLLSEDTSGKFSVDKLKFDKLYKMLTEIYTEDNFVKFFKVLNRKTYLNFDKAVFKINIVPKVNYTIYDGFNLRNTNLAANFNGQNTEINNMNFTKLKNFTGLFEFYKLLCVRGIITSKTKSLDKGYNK

O=C(O)CN(CCN(CC(=O)O)CC(=O)O)CC(=O)O [EDTA, ethylenediaminetetraacetate]
effect on LC enzymatic activity on removal of Zn2+ [1]: completely abolishes enzymatic activity

CC(=O)[O-].CC(=O)[O-].[Zn+2] [zinc acetate]
nausea and vomiting after single dose [2]: induces nausea and vomiting

[Cl-].[Cl-].[Zn+2] [zinc chloride]
effect on autocatalytic fragmentation of LC [3]: enhanced
